Measurements: US9944967B2, “Methods for the site-selective introduction of halogen into natural products” (THE REGENTS OF THE UNIVERSITY OF CALIFORNIA, priority 2013, dated 2018)

Experiments:
DEBSMod2/AT^0 = target: T1, DEBSMod2/AT^0 (Saccharopolyspora erythraea, UniProt Q03131, S2598A); test: Triketide lactone production using DEBSMod2/AT0; assay type: biochemical; details: overnight; for conversion of NDK-SNAC to R-TKL: NDK-SNAC (500 μM), respective acyl-CoA regeneration system
T1 construct: MBP (N); His6 (C); His6 (N); made in house; host or cells: E. coli BAP1 (pRARE2 co-expressed)
Protocol: All assay mixtures contained 400 mM sodium phosphate, pH 7.5, phosphoenolpyruvate (20 mM), TCEP (5 mM), magnesium chloride (5 mM), ATP (2.5 mM), pyruvate kinase (18 U/mL), myokinase (10 U/mL), methylmalonyl-CoA epimerase (5 μM), CoA (1 mM), MatB (20 μM), NDK-SNAC (500 μM) and either methylmalonate, fluoromalonate or malonate (5 mM) as appropriate. Reactions were initiated by addition of DEBSMod2/AT^0 (10 μM) and incubated at 37° C. overnight. Aliquots were removed, quenched by addition of HCl to 1 M, then processed and analyzed as described above.

DEBSMod6+TE [1] = test: Triketide lactone production under competitive conditions; assay type: biochemical
Protocol: For reactions with substrate regeneration, assay mixtures contained 400 mM sodium phosphate, pH 7.5, phosphoenolpyruvate (50 mM), TCEP (5 mM), magnesium chloride (10 mM), ATP (2.5 mM), pyruvate kinase (27 U/mL), myokinase (10 U/mL), methylmalonyl-CoA epimerase (5 μM), NDK-SNAC (15 mM) and DEBSMod6+TE (10 μM). Reactions were initiated by simultaneous addition of MatB (40 μM), fluoromalonyl-CoA (1 μM) and malonyl-CoA (1 μM) and incubated at 37° C. for 18-20 h. Protein was removed by filtration through a 3 kDa NWCO membrane at 14,000×g and the filtrate was analyzed by LC-MS. Standards of H-TKL and F-TKL were prepared using a mock reaction mixture (acyl-CoAs replaced by CoAs and NDK-SNAC replaced by N-acetyl cysteamine) as diluent. TKLs were quantified using single ion monitoring, H-TKL in positive mode and F-TKL in negative mode. For reactions without substrate regeneration, assay mixtures contained 400 mM sodium phosphate, pH 7.5, TCEP (5 mM), methylmalonyl-CoA epimerase (5 μM), NDK-SNAC (3 mM) and DEBSMod6+TE (10 μM). Reactions were initiated by adding fluoromalonyl-CoA (1 mM) and malonyl-CoA (1 mM) simultaneously. The mixtures were incubated at 37° C. for 20 h, then quenched, processed and analyzed as described above. H-TKL was monitored using an Agilent 6130 MS operating in positive ion mode, and the limit of detection was verified by spiking samples to 50 nM H-TKL using a standard solution.

[2] = target: T2, acetyl-CoA carboxylase (ACCase) (Escherichia coli, UniProt P0A9Q5+P0ABD5); test: Acetyl-CoA carboxylase discontinuous HPLC assay with AckA-Pta; assay type: biochemical, E. coli
T2 construct: made in house; host or cells: E. coli BL21(de3)T1R
Protocol: ACCase activity was measured using a discontinuous HPLC assay. Assays were performed at 30° C. in a total volume of 200 μL containing 50 mM HEPES, pH 7.5, TCEP (10 mM), bovine serum albumin (3 mg/mL), CoA (0.5 mM), ATP (2.5 mM), magnesium chloride (10 mM), sodium bicarbonate (75 mM), acetate or fluoroacetate (10 mM), phosphoenolpyruvate (10 mM), pyruvate kinase (4 U), AckA (0.1 μM), Pta (10 μM) and ACCase (15 μM). The pH of the buffer remained unchanged after addition of sodium bicarbonate. ACCase stock solution was prepared by pre-mixing the protein subunits at equimolar ratio (85 μM) except for AccB, which was added at 1.5-fold molar excess. The reaction was initiated with addition of ATP. Aliquots (20 μL) were removed and quenched by the addition of 70% perchloric acid (1 μL). Insoluble material was removed by centrifugation and the supernatant was analyzed on an Agilent 1200 or 1290 HPLC system on a LiChroCART 250-4 Purospher RP-18e column (5 μm, 4.6×250 mm, Millipore) and monitored at A260 nm. For reactions with acetate, a linear gradient from 2 to 20% acetonitrile over 10 min with 5 mM sodium phosphate and 5 mM sodium citrate with 0.1% trifluoroacetic acid, pH 4.6 as the aqueous mobile phase (1 mL/min) was used to analyze the reaction. […]

DEBSMod6+TE [3] = test: Time-course of TKL and F-TKL formation by DEBSMod6+TE with substrate regeneration; assay type: biochemical
Protocol: Assay and preparative mixtures contained 400 mM sodium phosphate, pH 7.5, phosphoenolpyruvate (50 mM), TCEP (5 mM), magnesium chloride (10 mM), ATP (2.5 mM), pyruvate kinase (27 U/mL), myokinase (10 U/mL), CoA (0.5 mM), methylmalonyl-CoA epimerase (5 μM), MatB (40 μM or as specified) and fluoro- or methylmalonate (10-20 mM). […] This mixture was incubated at 37° C. for 30-45 min and then initiated by addition of the N-acetylcysteamine thioester of (2S,3R)-2-methyl-3-hydroxypentanoic acid (NDK-SNAC, 1-10 mM) (Cane, D. E., et al., J. Am. Chem., 115:527-535 (1993)) and DEBSMod6+TE (10 μM). Aliquots (35 μL) were removed and quenched by addition of 70% perchloric acid (1.75 μL). […] The supernatant was removed and analyzed on a Zorbax Eclipse XDB C-18 column (3.5 μm, 3×150 mm, 35° C., Agilent) using a linear gradient from 0 to 40% acetonitrile over 14 min with 0.1% formic acid as the aqueous mobile phase after an initial hold at 0% acetonitrile for 30 s (0.8 mL/min) Products were monitored using an Agilent G1315D diode array detector (TKL, A260 nm or A275 nm, F-TKL, A247 nm, NDK-SNAC; A260 nm). […] For absolute quantification, each analyte was compared to an external standard curve. […] The concentrations of TKL and H-TKL were determined by ^1H NMR in D2O using the ERETIC method against an external standard of diethylfluoromalonate (75 mM).

DEBSMod6+TE [4] = target: T3, DEBSMod6+TE (Saccharopolyspora erythraea, UniProt Q03133); test: Acyl-CoA hydrolysis by DEBSMod6+TE (DTNB assay); assay type: biochemical; details: for v0 (rate of acyl-CoA hydrolysis): DEBSMod6 + TE (1 μM), acyl-CoA (500 μM), mean ± s.d. (n = 4); for Relative rate of acyl-CoA hydrolysis: relative to methylmalonyl-CoA
T3 construct: the sixth module of DEBS, including the terminal thioesterase (DEBSMod6+TE); His6 (C); made in house; host or cells: E. coli BAP1
Protocol: Hydrolytic activity of DEBSMod6+TE was measured by monitoring the reaction of free CoA with DTNB as described previously (Huang, F., et al., Chem. Biol., 13:475-484 (2006)). Assays were performed at 37° C. in a total volume of 200 μL containing 400 mM sodium phosphate, pH 7.5, 500 μM DTNB, and DEBSMod6+TE (1 μM). Reactions were initiated by addition of acyl-CoA (0.5 mM) and monitored at 412 nm in a Beckman Coulter DU-800 spectrophotometer. Release of CoA was quantified by comparison to a standard curve (5-100 μM).

NphT7 = target: T4, NphT7 (Streptomyces sp., UniProt D7URV0); test: Acetoacetyl-CoA synthase NphT7 NADPH-coupled assay with PhaB; assay type: biochemical; details: NphT7 reaction product
T4 construct: made in house; host or cells: E. coli BL21(de3)T1R
T4 sequence (D7URV0 1-329): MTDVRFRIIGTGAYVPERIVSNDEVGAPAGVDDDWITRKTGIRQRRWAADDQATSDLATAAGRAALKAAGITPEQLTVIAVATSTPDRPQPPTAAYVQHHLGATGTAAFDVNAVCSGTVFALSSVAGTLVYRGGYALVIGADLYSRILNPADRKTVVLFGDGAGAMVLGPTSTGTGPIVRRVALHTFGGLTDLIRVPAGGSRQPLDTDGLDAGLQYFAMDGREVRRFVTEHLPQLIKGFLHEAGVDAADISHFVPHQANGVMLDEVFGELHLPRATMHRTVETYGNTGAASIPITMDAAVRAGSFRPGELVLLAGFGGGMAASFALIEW
Protocol: NphT7 activity was measured using a NADPH-coupled assay with PhaB. Assays were performed at 30° C. in a total volume of 500 μL containing 50 mM HEPES, pH 7.5, NADPH (160 μM), acetyl-CoA (200 μM), PhaB (0.05 mg/mL), NphT7 (0.2 μM for malonyl-CoA; 0.5 μM for fluoromalonyl-CoA) and malonyl-CoA (5-150 μM) or fluoromalonyl-CoA (5-200 μM). Reactions were initiated with the addition of malonyl- or fluoromalonyl-CoA and monitored at 340 nm in an Agilent 8453 diode array spectrophotometer. The PhaB-coupled assay was tested both by doubling NphT7, which doubled the initial velocity with both the fluorinated and non-fluorinated substrates, and also by doubling the amount of PhaB, which led to no difference in initial velocity.

[5] = MatB regeneration, equimolar malonyl-CoA and fluoromalonyl-CoA, mean ± s.d. (n = 3)

SMILES: CCC1OC(=O)CC(O)C1C (stereo not drawn) [H-TKL, 2-desmethyltriketide lactone, reference compound]
- conversion of NDK-SNAC to R-TKL (DEBSMod2/AT^0): < 0.01%
- [H-TKL] (DEBSMod6+TE [1]; [5]): 720 ± 50 nM
- [H-TKL] (DEBSMod6+TE [1]; No regeneration, equimolar malonyl-CoA and fluoromalonyl-CoA (1 mM)): <50 nM

SMILES: O=C(O)CF [Fluoroacetate, reference compound]
- fold slower rate of conversion compared to acetate ([2]; one-pot AckA-Pta/ACCase carboxylation): 4.5 fold

SMILES: CC[C@H]1OC(=O)[C@H](C)C(=O)[C@H]1C [TKL, (2R,4S,5R)-2,4-Dimethyl-3-oxo-5-hydroxy-n-heptanoic acid β-lactone, reference compound]
- Initial rate of TKL formation (DEBSMod6+TE [3]; 2.5 mM NDK-SNAC): 1.5 min⁻¹
- conversion of NDK-SNAC to R-TKL (DEBSMod2/AT^0): all

SMILES: CC[C@H]1OC(=O)[C@@H](F)C(=O)[C@H]1C [F-TKL, (2S,4S,5R)-2-fluoro-4-methyl-3-oxo-5-hydroxy-n-heptanoic Acid δ-lactone]
- Initial rate of F-TKL formation (DEBSMod6+TE [3]; 10 mM NDK-SNAC): 0.14 h⁻¹
- conversion of NDK-SNAC to R-TKL (DEBSMod2/AT^0): 43%
- [F-TKL]/[H-TKL] (DEBSMod6+TE [1]; MatB regeneration): 10.3 ± 0.1
- [F-TKL] (DEBSMod6+TE [1]; [5]): 7,390 ± 520 nM
- [F-TKL]/[H-TKL] (DEBSMod6+TE [1]; No regeneration): >9
- [F-TKL] (DEBSMod6+TE [1]; No regeneration, equimolar malonyl-CoA and fluoromalonyl-CoA (1 mM), mean ± s.d. (n = 3)): 450 ± 60 nM
- fold more F-TKL than H-TKL produced (DEBSMod6+TE [1]; direct competition, equimolar (1 mM) fluoromalonyl-CoA and malonyl-CoA): at least 10 fold

SMILES: CC(C)(COP(=O)(O)OP(=O)(O)OC[C@H]1O[C@@H](n2cnc3c(N)ncnc32)[C@H](O)[C@@H]1OP(=O)(O)O)[C@@H](O)C(=O)NCCC(=O)NCCSC(=O)CC(=O)O [Malonyl-CoA]
- v0 (rate of acyl-CoA hydrolysis) (DEBSMod6+TE [4]): 6.1 ± 0.4 µM/min
- Relative rate of acyl-CoA hydrolysis (DEBSMod6+TE [4]): 4.5

SMILES: CC[C@@H](O)[C@H](C)C(=O)SCCNC(C)=O [NDK-SNAC, (2S,3R)-2-methyl-3-hydroxypentanoyl-N-acetylcysteamine thioester]
- NDK-SNAC consumed (DEBSMod2/AT^0; fluoromalonyl-CoA regeneration system): 82%
- NDK-SNAC consumed (DEBSMod2/AT^0; malonyl-CoA regeneration system): 100%

SMILES: CC(=O)C(F)C(=O)SCCNC(=O)CCNC(=O)[C@H](O)C(C)(C)COP(=O)(O)OP(=O)(O)OC[C@H]1O[C@@H](n2cnc3c(N)ncnc32)[C@H](O)[C@@H]1OP(=O)(O)O (stereo partly drawn) [acetofluoroacetyl-CoA]
- stability under the assay conditions (NphT7): degrade fairly rapidly

SMILES: CC(C(=O)O)C(=O)SCCNC(=O)CCNC(=O)[C@H](O)C(C)(C)COP(=O)(O)OP(=O)(O)OC[C@H]1O[C@@H](n2cnc3c(N)ncnc32)[C@H](O)[C@@H]1OP(=O)(O)O (stereo partly drawn) [Methylmalonyl-CoA]
- v0 (rate of acyl-CoA hydrolysis) (DEBSMod6+TE [4]): 1.36 ± 0.05 µM/min
- Relative rate of acyl-CoA hydrolysis (DEBSMod6+TE [4]): 1.0

SMILES: CC(C)(COP(=O)(O)OP(=O)(O)OC[C@H]1O[C@@H](n2cnc3c(N)ncnc32)[C@H](O)[C@@H]1OP(=O)(O)O)[C@@H](O)C(=O)NCCC(=O)NCCSC(=O)CF [fluoroacetyl-CoA]
- covalent inactivation of the ACCase ([2]; judged from overall extent of reaction): not significant
